Data from patent publication US20230143604A1, “QW DOSING OF GIP RECEPTOR AGONIST PEPTIDE COMPOUNDS AND USES THEREOF” (TAKEDA PHARMACEUTICAL COMPANY LIMITED, priority 2020, published 2023).
Starred links: 1 amine or outer side, 2 acyl side, 3 side chain; linkers in the order of their positions; H or OH if unused. Non-standard residues stand in square brackets, D forms with d. Residues, ends and D or L forms follow the SMILES beside them. Groups on a side chain read outwards from the residue. *: point of attachment. C18 diacid = O=C(O)CCCCCCCCCCCCCCCCC(=O)*; γGlu = O=C(O)[C@H](CCC(=O)[*:2])N[*:1]; NMeY = CN[C@@H](Cc1ccc(O)cc1)C(=O)O; AEEA = NCCOCCOCC(=O)O; Aib = CC(C)(N)C(=O)O

Assay: physchem
How it was run: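 Solubility at pH 7.4 determined by stepwise addition of 200 mM phosphate buffer in 100 μL increments to 3 mg peptide, mixing briefly each time, until no insoluble material remained, then measured by liquid chromatography.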

[1] = pH 7.4, aqueous buffer, pH 7.4 Phosphate Buffer - Solubility, 200 mM Phosphate buffer pH 7.4

| SMILES | solubility (pH 7.4) | solubility (pH 7.4, aqueous buffer) | solubility [1] | solubility (pH 7.4, solubility in phosphate buffer at pH 7.4, 200 mM phosphate buffer pH 7.4) |
| --- | --- | --- | --- | --- |
| CC[C@H](C)[C@H](NC(=O)[C@H](Cc1ccccc1)NC(=O)[C@@H](NC(=O)CNC(=O)[C@H](CCC(=O)O)NC(=O)C(C)(C)NC(=O)[C@H](Cc1ccc(O)cc1)NC)[C@@H](C)O)C(=O)N[C@@H](CO)C(=O)N[C@@H](CC(=O)O)C(=O)N[C@@H](Cc1ccc(O)cc1)C(=O)N[C@@H](CO)C(=O)N[C@H](C(=O)NC(C)(C)C(=O)N[C@@H](CC(C)C)C(=O)N[C@@H](CC(=O)O)C(=O)N[C@@H](CCCNC(=N)N)C(=O)NC(C)(C)C(=O)N[C@@H](C)C(=O)N[C@@H](CCC(N)=O)C(=O)NC(C)(C)C(=O)N[C@@H](CCCCNC(=O)COCCOCCNC(=O)COCCOCCNC(=O)CC[C@H](NC(=O)CC[C@H](NC(=O)CCCCCCCCCCCCCCCCC(=O)O)C(=O)O)C(=O)O)C(=O)N[C@@H](Cc1ccccc1)C(=O)N[C@H](C(=O)N[C@@H](CCC(=O)O)C(=O)N[C@@H](Cc1c[nH]c2ccccc12)C(=O)N[C@@H](CC(C)C)C(=O)N[C@@H](CC(C)C)C(=O)N[C@@H](C)C(=O)N[C@@H](CCC(N)=O)C(=O)N[C@@H](CCCCN)C(=O)NCC(=O)O)C(C)C)[C@@H](C)CC [Compound 110] (H-[NMeY][Aib]EGTFISDYSI[Aib]LDR[Aib]AQ[Aib]K([AEEA-AEEA-γGlu-γGlu-C18 diacid])FVEWLLAQKG-OH) | ≥ 15 mg/mL | ≥ 60 mg/mL |  |  |
| CC[C@H](C)[C@H](NC(=O)[C@H](Cc1ccccc1)NC(=O)[C@@H](NC(=O)CNC(=O)[C@H](CCC(=O)O)NC(=O)C(C)(C)NC(=O)[C@H](Cc1ccc(O)cc1)NC)[C@@H](C)O)C(=O)N[C@@H](CO)C(=O)N[C@@H](CC(=O)O)C(=O)N[C@@H](Cc1ccc(O)cc1)C(=O)N[C@@H](CO)C(=O)N[C@H](C(=O)NC(C)(C)C(=O)N[C@@H](CCCCNC(=O)CNC(=O)CNC(=O)CNC(=O)CNC(=O)CNC(=O)CC[C@H](NC(=O)CCCCCCCCCCCCCCCC(=O)O)C(=O)O)C(=O)N[C@@H](CC(=O)O)C(=O)N[C@@H](CCCNC(=N)N)C(=O)NC(C)(C)C(=O)N[C@@H](C)C(=O)N[C@@H](CCC(N)=O)C(=O)NC(C)(C)C(=O)N[C@@H](CC(=O)O)C(=O)N[C@@H](Cc1ccccc1)C(=O)N[C@H](C(=O)N[C@@H](CC(N)=O)C(=O)N[C@@H](Cc1c[nH]c2ccccc12)C(=O)N[C@@H](CC(C)C)C(=O)N[C@@H](CC(C)C)C(=O)N[C@@H](C)C(=O)N[C@@H](CCC(N)=O)C(=O)N[C@@H](CCCNC(=N)N)C(N)=O)C(C)C)[C@@H](C)CC [Compound 265] |  | ≥ 7.5 mg/mL |  |  |
| CC[C@H](C)[C@H](NC(=O)[C@H](CO)NC(=O)[C@H](Cc1ccc(O)cc1)NC(=O)[C@H](CC(=O)O)NC(=O)[C@H](CO)NC(=O)[C@@H](NC(=O)[C@H](Cc1ccccc1)NC(=O)[C@@H](NC(=O)CNC(=O)[C@H](CCC(=O)O)NC(=O)C(C)(C)NC(=O)[C@H](Cc1ccc(O)cc1)NC)[C@@H](C)O)[C@@H](C)CC)C(=O)N[C@@H](C)C(=O)N[C@@H](CC(C)C)C(=O)N[C@@H](CC(=O)O)C(=O)N[C@@H](CCCNC(=N)N)C(=O)NC(C)(C)C(=O)N[C@@H](CCCCNC(=O)COCCOCCNC(=O)COCCOCCNC(=O)CC[C@H](NC(=O)CC[C@H](NC(=O)CCCCCCCCCCCCCCCCC(=O)O)C(=O)O)C(=O)O)C(=O)N[C@@H](CCC(N)=O)C(=O)NC(C)(C)C(=O)N[C@@H](CC(=O)O)C(=O)N[C@@H](Cc1ccccc1)C(=O)N[C@H](C(=O)N[C@@H](CC(N)=O)C(=O)N[C@@H](Cc1c[nH]c2ccccc12)C(=O)N[C@@H](CC(C)C)C(=O)N[C@@H](CC(C)C)C(=O)N[C@@H](C)C(=O)N[C@@H](CCC(N)=O)C(=O)N[C@@H](CCCNC(=N)N)C(=O)NCC(=O)O)C(C)C [Compound 49] (H-[NMeY][Aib]EGTFISDYSIALDR[Aib]K([AEEA-AEEA-γGlu-γGlu-C18 diacid])Q[Aib]DFVNWLLAQRG-OH) | ≥ 15 mg/mL | ≥ 30 mg/mL |  |  |
| CC[C@H](C)[C@H](NC(=O)[C@H](Cc1ccccc1)NC(=O)[C@@H](NC(=O)CNC(=O)[C@H](CCC(=O)O)NC(=O)C(C)(C)NC(=O)[C@H](Cc1ccc(O)cc1)NC)[C@@H](C)O)C(=O)N[C@@H](CO)C(=O)N[C@@H](CC(=O)O)C(=O)N[C@@H](Cc1ccc(O)cc1)C(=O)N[C@@H](CO)C(=O)N[C@H](C(=O)NC(C)(C)C(=O)N[C@@H](CC(C)C)C(=O)N[C@@H](CC(=O)O)C(=O)N[C@@H](CCCNC(=N)N)C(=O)NC(C)(C)C(=O)N[C@@H](C)C(=O)N[C@@H](CCC(N)=O)C(=O)NC(C)(C)C(=O)N[C@@H](CCCCNC(=O)COCCOCCNC(=O)COCCOCCNC(=O)CC[C@H](NC(=O)CC[C@H](NC(=O)CCCCCCCCCCCCCCCCC(=O)O)C(=O)O)C(=O)O)C(=O)N[C@@H](Cc1ccccc1)C(=O)N[C@H](C(=O)N[C@@H](CC(N)=O)C(=O)N[C@@H](Cc1c[nH]c2ccccc12)C(=O)N[C@@H](CC(C)C)C(=O)N[C@@H](CC(C)C)C(=O)N[C@@H](C)C(=O)N[C@@H](CCC(N)=O)C(=O)N[C@@H](CCCNC(=N)N)C(=O)N1CCC[C@H]1C(=O)N[C@@H](CO)C(=O)N[C@@H](CO)C(=O)NCC(=O)N[C@@H](C)C(=O)N1CCC[C@H]1C(=O)N1CCC[C@H]1C(=O)N1CCC[C@H]1C(=O)N[C@@H](CO)C(N)=O)C(C)C)[C@@H](C)CC [Compound 89] (H-[NMeY][Aib]EGTFISDYSI[Aib]LDR[Aib]AQ[Aib]K([AEEA-AEEA-γGlu-γGlu-C18 diacid])FVNWLLAQRPSSGAPPPS-NH2) |  |  | ≥ 60 mg/mL | ≥ 15 mg/mL |
| CC[C@H](C)[C@H](NC(=O)[C@H](CO)NC(=O)[C@H](Cc1ccc(O)cc1)NC(=O)[C@H](CC(=O)O)NC(=O)[C@H](CO)NC(=O)[C@@H](NC(=O)[C@H](Cc1ccccc1)NC(=O)[C@@H](NC(=O)CNC(=O)[C@H](CCC(=O)O)NC(=O)C(C)(C)NC(=O)[C@H](Cc1ccc(O)cc1)NC)[C@@H](C)O)[C@@H](C)CC)C(=O)N[C@@H](C)C(=O)N[C@@H](CC(C)C)C(=O)N[C@@H](CC(=O)O)C(=O)N[C@@H](CCCNC(=N)N)C(=O)NC(C)(C)C(=O)N[C@@H](Cc1c[nH]cn1)C(=O)N[C@@H](CCC(N)=O)C(=O)NC(C)(C)C(=O)N[C@@H](CCCCNC(=O)COCCOCCNC(=O)COCCOCCNC(=O)CC[C@H](NC(=O)CC[C@H](NC(=O)CCCCCCCCCCCCCCCCC(=O)O)C(=O)O)C(=O)O)C(=O)N[C@@H](Cc1ccccc1)C(=O)N[C@H](C(=O)N[C@@H](CC(N)=O)C(=O)N[C@@H](Cc1c[nH]c2ccccc12)C(=O)N[C@@H](CC(C)C)C(=O)N[C@@H](CC(C)C)C(=O)N[C@@H](C)C(=O)N[C@@H](CCC(N)=O)C(=O)N[C@@H](CCCNC(=N)N)C(N)=O)C(C)C [Compound 18] (H-[NMeY][Aib]EGTFISDYSIALDR[Aib]HQ[Aib]K([AEEA-AEEA-γGlu-γGlu-C18 diacid])FVNWLLAQR-NH2) | ≥ 15 mg/mL | ≥ 30 mg/mL |  |  |
| CC[C@H](C)[C@H](NC(=O)[C@H](Cc1ccccc1)NC(=O)[C@@H](NC(=O)CNC(=O)[C@H](CCC(=O)O)NC(=O)C(C)(C)NC(=O)[C@@H](N)Cc1ccc(O)cc1)[C@@H](C)O)C(=O)N[C@@H](CO)C(=O)N[C@@H](CC(=O)O)C(=O)N[C@@H](Cc1ccc(O)cc1)C(=O)N[C@@H](CO)C(=O)N[C@H](C(=O)NC(C)(C)C(=O)N[C@@H](CC(C)C)C(=O)N[C@@H](CC(=O)O)C(=O)N[C@@H](CCCCN)C(=O)N[C@@H](C)C(=O)N[C@@H](C)C(=O)N[C@@H](CCC(N)=O)C(=O)N[C@@H](CCC(N)=O)C(=O)N[C@@H](CCCCNC(=O)COCCOCCNC(=O)COCCOCCNC(=O)CC[C@H](NC(=O)CC[C@H](NC(=O)CCCCCCCCCCCCCCCCC(=O)O)C(=O)O)C(=O)O)C(=O)N[C@@H](Cc1ccccc1)C(=O)N[C@H](C(=O)N[C@@H](CCC(=O)O)C(=O)N[C@@H](Cc1c[nH]c2ccccc12)C(=O)N[C@@H](CC(C)C)C(=O)N[C@@H](CC(C)C)C(=O)N[C@@H](C)C(=O)N[C@@H](CCC(N)=O)C(=O)N[C@@H](CCCNC(=N)N)C(=O)NCC(=O)O)C(C)C)[C@@H](C)CC [Compound 167] (H-Y[Aib]EGTFISDYSI[Aib]LDKAAQQK([AEEA-AEEA-γGlu-γGlu-C18 diacid])FVEWLLAQRG-OH) | ≥ 15 mg/mL | ≥ 30 mg/mL |  |  |
| CC[C@H](C)[C@H](NC(=O)[C@H](CO)NC(=O)[C@H](Cc1ccc(O)cc1)NC(=O)[C@H](CC(=O)O)NC(=O)[C@H](CO)NC(=O)[C@@H](NC(=O)[C@H](Cc1ccccc1)NC(=O)[C@@H](NC(=O)CNC(=O)[C@H](CCC(=O)O)NC(=O)C(C)(C)NC(=O)[C@H](Cc1ccc(O)cc1)NC)[C@@H](C)O)[C@@H](C)CC)C(=O)N[C@@H](C)C(=O)N[C@@H](CC(C)C)C(=O)N[C@@H](CO)C(=O)N[C@@H](CCCNC(=N)N)C(=O)N[C@@H](CCCCNC(=O)CNC(=O)CNC(=O)CNC(=O)CNC(=O)CNC(=O)CNC(=O)CCCCCCCCCCCCCCCCC(=O)O)C(=O)N[C@@H](Cc1c[nH]cn1)C(=O)N[C@@H](CCC(N)=O)C(=O)NC(C)(C)C(=O)N[C@@H](CC(N)=O)C(=O)N[C@@H](Cc1ccccc1)C(=O)N[C@H](C(=O)N[C@@H](CC(N)=O)C(=O)N[C@@H](Cc1c[nH]c2ccccc12)C(=O)N[C@@H](CC(C)C)C(=O)N[C@@H](CC(C)C)C(=O)N[C@@H](C)C(=O)N[C@@H](CCC(N)=O)C(=O)N[C@@H](CCCNC(=N)N)C(=O)N1CCC[C@H]1C(=O)N[C@@H](CO)C(=O)N[C@@H](CO)C(=O)NCC(=O)N[C@@H](C)C(=O)N1CCC[C@H]1C(=O)N1CCC[C@H]1C(=O)N1CCC[C@H]1C(=O)N[C@@H](CO)C(=O)N[C@@H](CCCNC(=N)N)C(N)=O)C(C)C [Compound 279] |  |  | < 15 mg/mL |  |
